Consider 10 compounds from ChEMBL document CHEMBL1828514, “Comparison of the reactivity of antimalarial 1,2,4,5-tetraoxanes with 1,2,4-trioxolanes in the presence of ferrous iron salts, heme, and ferrous iron salts/phosphatidylcholine” (J Med Chem, 2011).

The source made the active and inactive calls. No cut-off for these calls is given here.

Series [1] is described as follows: Induction of alkylated heme adduct formation from reaction with ferrous heme by LC/MS analysis.
The next series has as its system Plasmodium falciparum. The series is described as follows: Antimalarial activity against Plasmodium falciparum 3D7 assessed as inhibition of [3H]hypoxanthine incorporation after 48 hrs by liquid scintillation counting. Type of series: functional, organism-based.
A short description of series [2]: Induction of 2-Linoleoyl-1-palmitoyl-sn-phosphotidylcholine peroxidation in the presence of Ferrous sulphate after 24 hrs by LC/MS analysis. The format is functional.
Series [3] is described as follows: Chemical stability of the compound assessed as iron-mediated decomposition after 24 hrs by LC/MS analysis. The format is physicochemical.
Series [4] can be described thus: Induction of oxyl radical formation from reaction with ferrous heme assessed as decrease in heme concentration by HPLC analysis relative to control. The format is physicochemical. The arrangement: scale not given: the % may be the effect or the level left.
Series [5] can be described thus: Induction of TEMPO adduct formation after 24 hrs in presence of 2,2,6,6-tetramethyl-1-piperidine-1-oxyl and ferrous sulfate by LC/MS analysis.
Series [6] in a line: Induction of oxyl radical formation from reaction with iron(2) gluconate after 12 hrs by LC/MS analysis. Type of series: physicochemical.
A short description of series [7]: Induction of 2-Linoleoyl-1-palmitoyl-sn-phosphotidylcholine peroxidation in the presence of ferrous sulphate after 24 hrs by ESI/MS analysis. The format is functional.
Series [8] can be described thus: Induction of formation of Manganese-TPC adduct from reaction with manganese(2) tetraphenylporphyrin. Type of series: physicochemical.
Series [9] is described as follows: Induction of formation of demetalated adduct from reaction with iron(2) tetraphenylporphyrin. The format is physicochemical.
A short description of series [10]: Induction of formation of chlorin-type adduct from reaction with iron(2) tetraphenylporphyrin. Type of series: physicochemical.
The nature of series [11]: Induction of oxyl radical formation from reaction with ferrous salt in the presence of 2,2,6,6-tetramethyl-1-piperidine-1-oxyl after 24 hrs by spin-trapping and LC/MS analysis. The format is physicochemical.

For the compound `O=C(CC1CCC2(CC1)OOC1(OO2)C2CC3CC(C2)CC1C3)N1CCN(C2CCNCC2)CC1` (centres undefined), the outcome in series [1] and in series [2] was Active. Also, the IC50 – broadly, the concentration needed to halve the response being measured – in the series on Plasmodium falciparum amounted to 0.4 nM. Besides, the Stability entry in series [3] was “Unstable”. Moreover, the Activity in series [4] was found to be 38%.
As for `CCOC(=O)CC1CCC2(CC1)OOC1(OO2)C2CC3CC(C2)CC1C3` (centres undefined), the result in [5] was Active. For the same compound, the IC50 in the series with Plasmodium falciparum was determined as 10 nM.
For `O=C(CC1CCC2(CC1)OOC1(OO2)C2CC3CC(C2)CC1C3)NCc1ccc(F)cc1` (centres undefined), the outcome in series [6] was Active. Also, in series [7], the outcome was Active. Moreover, the IC50 with Plasmodium falciparum was 3 nM.
Consider `CN1CCN(C2CCN(C(=O)C[C@H]3CC[C@]4(CC3)OO[C@]3(O4)C4CC5CC(C4)CC3C5)CC2)CC1`, for which, in the series with Plasmodium falciparum, the IC50 was 0.5 nM. Also, the result in series [2] was Active. Moreover, in series [3], the Stability result is “Unstable”.
With `O=C(CC1CCC2(CC1)OOC1(OO2)C2CC3CC(C2)CC1C3)N1CCOCC1` (centres undefined), the result in series [1] was Active. Also, in the series on Plasmodium falciparum, the half-inhibitory concentration (IC50) was 5.2 nM.
For `CC(C)CN1CCN(C(=O)C[C@H]2CC[C@]3(CC2)OO[C@]2(O3)C3CC4CC(C3)CC2C4)CC1`, the outcome in series [1] and in [2] was Active. Also, the IC50 in the series on Plasmodium falciparum was 2.1 nM. In [3], the Stability entry is “Unstable”.
For the compound `O=C(CC1CCC2(CC1)OOC1(OO2)C2CC3CC(C2)CC1C3)NC1CC1` (centres undefined), the outcome in [5] was Active. Also, in the series on Plasmodium falciparum, the half-maximal inhibitory concentration (IC50) stood at 2.3 nM.
Regarding `CC(CN1CCNCC1)C(=O)CC1CCC2(CC1)OOC1(OO2)C2CC3CC(C2)CC1C3` (centres undefined), the Activity result in series [8] is “Active”; in series [9] it was “Active”; in series [10], “Active”; in series [4] it was 53%; in series [11] it was “Active”. Further, the outcome in series [5], in [1] and in series [2] was Active. Also, the IC50 in the series on Plasmodium falciparum amounted to 1.4 nM. Also, the Stability result in series [3] is “Unstable”.
Take `C[C@@H]1CC[C@H]2[C@@H](C)C(=O)O[C@@H]3O[C@@]4(C)CC[C@@H]1[C@]32OO4` [ARTEMISININ]: in [7], the result was inactive. Besides, the Activity in series [4] is 70%.
Take `CC(C)(N)CNC(=O)C[C@H]1CC[C@]2(CC1)OO[C@]1(O2)C2CC3CC(C2)CC1C3` [OZ277]: in series [11], the result was Active.
